Assay results taken from ChEMBL document CHEMBL1201862, “PubChem BioAssay data set” (2004).
The source made the active and inactive calls.

Columns and labels:
[1] = molecular target: C-C chemokine receptor type 6 (Homo sapiens, UniProt P51684); test: CCR6 receptor antagonists, dose response, cell-based, luminescent beta-arrestin readout (AID 504728); assay type: functional
[2] = molecular target: Heat shock protein HSP 90-alpha (Homo sapiens, UniProt P07900); assay type: functional, organism-based
Vero = test: cells; assay type: functional; settings: Chlorocebus sabaeus
Beta-galactosidase = Beta-galactosidase (Escherichia coli, UniProt Q8VNN2); test: beta-galactosidase enzyme inhibitors and activators, dose response, artefact control for CCR6 antagonist project, biochemical, E. coli enzyme, set 3 (AID 504712); assay type: functional
Chain of Beta-galactosidase (Q8VNN2 whole entry): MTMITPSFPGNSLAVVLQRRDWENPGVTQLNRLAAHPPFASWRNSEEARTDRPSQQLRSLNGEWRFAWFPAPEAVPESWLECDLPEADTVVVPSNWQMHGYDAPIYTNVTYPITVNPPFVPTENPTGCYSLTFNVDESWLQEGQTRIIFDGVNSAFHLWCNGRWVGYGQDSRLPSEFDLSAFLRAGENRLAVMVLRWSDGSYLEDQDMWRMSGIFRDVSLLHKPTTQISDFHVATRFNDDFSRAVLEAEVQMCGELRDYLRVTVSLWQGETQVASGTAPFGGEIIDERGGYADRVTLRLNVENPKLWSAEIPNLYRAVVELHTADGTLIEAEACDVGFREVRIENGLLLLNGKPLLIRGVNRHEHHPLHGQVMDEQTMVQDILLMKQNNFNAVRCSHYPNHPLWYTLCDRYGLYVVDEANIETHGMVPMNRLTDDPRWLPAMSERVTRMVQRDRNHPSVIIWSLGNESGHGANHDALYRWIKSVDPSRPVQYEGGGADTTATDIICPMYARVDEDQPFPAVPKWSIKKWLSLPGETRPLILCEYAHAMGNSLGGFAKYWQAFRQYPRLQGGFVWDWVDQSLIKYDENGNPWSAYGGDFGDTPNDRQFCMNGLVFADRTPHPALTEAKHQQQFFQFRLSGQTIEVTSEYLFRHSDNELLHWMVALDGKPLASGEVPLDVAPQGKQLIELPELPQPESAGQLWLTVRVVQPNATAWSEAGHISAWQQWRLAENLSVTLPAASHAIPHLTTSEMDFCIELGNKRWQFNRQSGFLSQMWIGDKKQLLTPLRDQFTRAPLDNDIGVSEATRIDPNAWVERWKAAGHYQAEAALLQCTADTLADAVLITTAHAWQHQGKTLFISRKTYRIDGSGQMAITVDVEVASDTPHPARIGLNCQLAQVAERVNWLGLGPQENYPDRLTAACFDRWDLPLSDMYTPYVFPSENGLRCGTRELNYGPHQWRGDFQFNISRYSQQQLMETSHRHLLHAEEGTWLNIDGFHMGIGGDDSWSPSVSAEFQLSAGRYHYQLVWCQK

[3] = molecular target: T1, Eukaryotic translation initiation factor 2-alpha kinase 3 (Homo sapiens, UniProt Q9NZJ5); test: Counterscreen assay for PERK inhibitors: Dose response cell-based high throughput screening assay to measure inhibition of PERK at 6 hours. [Related pubchem assays: 1522, 1416 ]; assay type: functional
T1 sequence (Q9NZJ5 whole entry): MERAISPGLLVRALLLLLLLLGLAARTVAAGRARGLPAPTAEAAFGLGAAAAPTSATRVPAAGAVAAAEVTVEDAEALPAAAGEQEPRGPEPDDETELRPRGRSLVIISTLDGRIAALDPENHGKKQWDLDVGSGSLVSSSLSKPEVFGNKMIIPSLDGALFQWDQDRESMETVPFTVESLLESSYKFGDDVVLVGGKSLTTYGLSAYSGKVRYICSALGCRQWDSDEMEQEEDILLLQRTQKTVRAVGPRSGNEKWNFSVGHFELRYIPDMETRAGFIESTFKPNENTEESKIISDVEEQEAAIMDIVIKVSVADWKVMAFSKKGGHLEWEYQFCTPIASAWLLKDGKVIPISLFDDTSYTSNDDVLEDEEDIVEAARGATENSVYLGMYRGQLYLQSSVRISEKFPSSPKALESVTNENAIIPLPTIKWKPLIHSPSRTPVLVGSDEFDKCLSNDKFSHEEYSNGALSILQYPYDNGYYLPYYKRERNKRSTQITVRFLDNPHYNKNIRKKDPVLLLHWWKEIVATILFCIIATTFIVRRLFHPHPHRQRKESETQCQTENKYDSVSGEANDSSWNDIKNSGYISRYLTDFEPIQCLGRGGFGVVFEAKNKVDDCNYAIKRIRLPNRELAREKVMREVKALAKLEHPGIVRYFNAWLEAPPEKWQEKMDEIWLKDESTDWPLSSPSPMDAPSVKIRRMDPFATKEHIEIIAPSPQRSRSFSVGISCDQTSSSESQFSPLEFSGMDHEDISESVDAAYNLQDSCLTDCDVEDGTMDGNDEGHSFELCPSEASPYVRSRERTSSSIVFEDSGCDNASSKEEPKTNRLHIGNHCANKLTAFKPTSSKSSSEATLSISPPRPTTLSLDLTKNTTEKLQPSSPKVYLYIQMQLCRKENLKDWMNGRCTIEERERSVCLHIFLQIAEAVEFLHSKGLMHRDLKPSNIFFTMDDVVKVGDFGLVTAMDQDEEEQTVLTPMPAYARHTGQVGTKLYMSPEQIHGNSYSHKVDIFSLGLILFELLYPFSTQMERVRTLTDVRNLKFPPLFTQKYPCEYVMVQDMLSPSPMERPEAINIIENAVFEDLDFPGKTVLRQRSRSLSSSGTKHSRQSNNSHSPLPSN

[4] = molecular target: T1, Eukaryotic translation initiation factor 2-alpha kinase 3; test: Dose response cell-based high-throughput screening assay to measure PERK inhibition. [Related pubchem assays: 1416 ]; assay type: functional
[5] = molecular target: Melanin-concentrating hormone receptor 1 (Homo sapiens, UniProt Q99705); test: Late-stage fluorescence-based counterscreen for antagonists of the G-protein coupled receptor 7 (GPR7): cell-based dose response assay to identify antagonists of the melanin-concentrating hormone receptor 1 (MCHR1). [Related pubchem assays (depositor defined):AID1861, AID1880, AID1952, AID2148, AID2251, AID2257, AID485339]; assay type: functional;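 note: stimulated with 30 nM MCH peptide agonist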
Chain of Melanin-concentrating hormone receptor 1 (Q99705 whole entry): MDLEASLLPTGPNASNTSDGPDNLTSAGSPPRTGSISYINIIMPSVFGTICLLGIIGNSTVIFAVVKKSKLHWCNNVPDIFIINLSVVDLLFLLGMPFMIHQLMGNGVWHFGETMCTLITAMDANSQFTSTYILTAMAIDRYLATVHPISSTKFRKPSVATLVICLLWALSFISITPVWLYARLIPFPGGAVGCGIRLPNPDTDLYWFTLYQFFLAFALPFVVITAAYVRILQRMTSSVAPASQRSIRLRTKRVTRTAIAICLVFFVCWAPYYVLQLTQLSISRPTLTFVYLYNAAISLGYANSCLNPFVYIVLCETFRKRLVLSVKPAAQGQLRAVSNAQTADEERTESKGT

Streptococcus = test: Group A Streptococcus viability loss, dose response, counter-screen for streptokinase expression inhibitor project, luminescence, BacTiterGlo (AID 1915); assay type: functional, organism-based; settings: read-out: EC50;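 note: potency for reduction of bacterial viability or growth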
[6] = THP-1 cell cytotoxicity, dose response, cytotoxicity control for non-replicating M. tuberculosis project (AID 489025); assay type: functional
[7] = Vero E6 cell cytotoxicity, dose response, cytotoxicity control for non-replicating M. tuberculosis project, secondary assay (AID 492998); assay type: functional, VeroE6; settings: Vero C1008
cells = assay type: functional
[8] = HepG2 cell cytotoxicity, dose response, cytotoxicity control for non-replicating M. tuberculosis project (AID 489018); assay type: functional; settings: Mycobacterium tuberculosis
[9] = tested on: Streptococcus sp. 'group A'; test: growth inhibition of control SK(-) GAS strain, dose response, counter-screen for streptokinase expression inhibitor project, luminescence, kanamycin, BacTiterGlo, confirmation (AID 1900); assay type: functional, organism-based
Bcl-2-like protein 10 = Bcl-2-like protein 10 (Homo sapiens, UniProt Q9HD36); test: displacers of TR3 peptide from Bcl-B, primary screen, selectivity assay for Bfl-1 inhibitor project, biochemical, fluorescence polarization, FITC-TR3 peptide (AID 748);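 note: fluorescence polarization from a fluorescein-labelled TR3 peptide binding purified Bcl-B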
Chain of Bcl-2-like protein 10 (Q9HD36 whole entry): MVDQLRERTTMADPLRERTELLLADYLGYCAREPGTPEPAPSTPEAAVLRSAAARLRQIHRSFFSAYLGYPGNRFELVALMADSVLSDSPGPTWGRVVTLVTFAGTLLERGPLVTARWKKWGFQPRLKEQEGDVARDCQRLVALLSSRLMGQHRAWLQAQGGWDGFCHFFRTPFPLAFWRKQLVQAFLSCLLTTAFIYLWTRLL

Chain of C-C chemokine receptor type 6 (P51684 whole entry): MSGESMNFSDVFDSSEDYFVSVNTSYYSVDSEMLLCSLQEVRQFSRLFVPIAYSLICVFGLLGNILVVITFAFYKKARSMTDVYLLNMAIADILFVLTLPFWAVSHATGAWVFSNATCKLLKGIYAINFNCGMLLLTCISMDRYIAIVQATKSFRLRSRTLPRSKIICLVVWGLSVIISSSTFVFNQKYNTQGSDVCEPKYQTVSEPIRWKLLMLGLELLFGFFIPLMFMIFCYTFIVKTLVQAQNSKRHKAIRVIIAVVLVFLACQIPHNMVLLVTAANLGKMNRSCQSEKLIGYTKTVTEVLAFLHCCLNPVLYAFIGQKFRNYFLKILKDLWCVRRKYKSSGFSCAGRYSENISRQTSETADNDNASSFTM

For `COc1cccc(/C=C2/CCC(CN(C)C)C2=O)c1` (stereo unspecified), the IC50 [1] was 32.3 µM (inactive), the AC50 [2] was 4.55 µM (active) and the CC50 (Vero) was 22.4 µM (active). For the same compound, the IC50 (Beta-galactosidase) was > 66.6 µM (inactive).

In the case of `CCCCc1c(C)nc2c(OC)cccc2c1SCC(=O)O`, the EC50 [3] is reported as > 55.7 µM (not active) and the EC50 [4] is reported as > 55.7 µM (not active).

With `Cc1csc2nc(CNC(=O)CCC(=O)O)cn12` the EC50 [3] was > 55.7 µM (not active) and the EC50 [4] was > 55.7 µM (not active).

For `COc1ccc(Oc2c(C=O)cnn(-c3ccc(C(C)C)cc3)c2=O)cc1`, the IC50 [5] was 4.8 µM (active).

In the case of `O=c1c2cc(Cl)ccc2nc(-c2ccc(Cl)c(Cl)c2)n1O`, the EC50 (Streptococcus) is reported as 0.949 µM (active), the CC50 [6] is reported as 14.2 µM (active) and the CC50 [7] is reported as 10.9 µM (active). For the same compound, the IC50 (cells) was 4.14 µM (active), the CC50 [8] was > 20 µM (active) and the EC50 [9] was 0.402 µM (active).

In the case of `COc1ccc(N2C(=O)c3cccc4cccc(c34)C2=O)nn1`, the IC50 (Bcl-2-like protein 10) is reported as > 50 µM (inactive).
